Laboratory results: paper PMC12621189, “Optimization of Selective and CNS Penetrant Alkyne-Based TREK Inhibitors: The Discovery and Characterization of ONO-9517601 (VU6022856) and ONO-7927846 (VU6024391)” (Journal of Medicinal Chemistry, 2025)

How the values were obtained:
mouse TREK-1 (mTREK-1) = target: T1, mouse TREK-1 (mTREK-1) (Mus musculus, UniProt P97438); test: mTREK-1 manual patch clamp assay; format: cell-based; conditions: mouse TREK-1, manual patch clamp; read-out: TREK-1 IC50 (mouse, MPC)
T1 construct: expressed in transfected cells; host or cells: CHO-K1 (transient)
T1 sequence (P97438 1-426): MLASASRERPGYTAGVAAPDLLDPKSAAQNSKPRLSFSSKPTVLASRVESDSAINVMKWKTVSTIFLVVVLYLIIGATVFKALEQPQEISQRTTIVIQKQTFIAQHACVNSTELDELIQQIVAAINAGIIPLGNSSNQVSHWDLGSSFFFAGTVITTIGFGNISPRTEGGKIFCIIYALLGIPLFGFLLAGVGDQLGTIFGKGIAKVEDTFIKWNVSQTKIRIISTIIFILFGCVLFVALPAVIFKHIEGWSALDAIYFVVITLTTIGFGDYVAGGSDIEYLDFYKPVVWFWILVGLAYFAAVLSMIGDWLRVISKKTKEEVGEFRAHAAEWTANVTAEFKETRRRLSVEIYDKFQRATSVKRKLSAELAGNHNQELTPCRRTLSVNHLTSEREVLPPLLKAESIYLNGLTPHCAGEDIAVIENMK
Protocol: hTREK-1 and mTREK-1 patch clamp assay
CHO-K1 cells stably expressing hTREK-1 or CHO-K1 cells transiently expressing mouse TREK-1 (mTREK-1) were plated on glass coverslips, and voltage clamped in the whole-cell configuration of the patch clamp technique. Cells were voltage clamped at a holding potential of - 80 mV and the stepped to 0 mV for 500 msec. The voltage was subsequently ramped from -120mV to +80 mV over a 500 msec duration. This step-ramp protocol was repeated every 10 sec. The bathing solution contained the following: 135 mM NaCl, 5 mM KCl, 2 mM CaCl2, 1 mM MgCl2, 5 mM D-Glucose, 10 mM HEPES, 10 mM sucrose (adjusted to pH 7.4 with NaOH, 300 mosmol/kg H2O). The pipette solution contained the following: 135 mM KCl, 2 mM MgCl2, 1 mM EGTA, 10 mM HEPES, 2 mM Na2ATP (adjusted to pH 7.35 with KOH, 285 mosmol/kg H2O). Test […]
compounds were dissolved into the bathing solution. The effects of test compound on the currents were calculated at 0 mV using the following equations:
% inhibition = (1-post current/pre current) x 100
% inhibition vs compound concentrations were plotted in GraphPad Prism and calculated IC50. […]

ChromatoLogD = format: physicochemical
[1] = Liver microsome intrinsic clearance, mouse; format: in vitro ADME; conditions: mouse liver microsomes, predicted intrinsic clearance, read-out: LMS CLINT mouse
[2] = Plasma protein binding, rat; format: in vitro ADME; conditions: bound; for fraction unbound at 6 h, 5 µM: rat, plasma, pH 7.4, rat plasma, read-out: PPB rat (converted)
Protocol: Plasma protein binding and Brain homogenate binding: Determination of fraction unbound (f u) in plasma was conducted in vitro via equilibrium dialysis using HTDialysis (HTD) membrane plates. The top half of the plate was filled with 100 uL of Dubelco’s Phosphate Buffered Saline, pH 7.4 (DPBS). Compounds were diluted into plasma from each species (5 µM final concentration), which was aliquoted in triplicate to the ‘bottom half’ of the prepared HTD plate wells. The HTD plate was sealed and incubated for 6 hours at 37 °C. Following incubation, each well (both top and bottom halves) were transferred (20 µL) to the corresponding wells of a 96-shallow-well (V-bottom) plate. The daughter plates were then matrix-matched (DPBS side wells received equal volume of plasma, and plasma side wells received equal volume of DPBS), and extraction solution (120 µL; acetonitrile containing 50 nM carbamazepine as IS) was added to all wells of both daughter plates to precipitate protein and extract test article. The plates were then sealed and centrifuged (3500 rcf) for 10 minutes at ambient temperature. Supernatant (60 µL) from each well of the daughter plates was then transferred to the corresponding wells of new daughter plates (96-shallow-well, V bottom) containing water (Milli-Q, 60 µL/well), and the plates were sealed in preparation for LC-MS/MS analysis (see LC-MS/MS analysis method below).
The unbound fraction (f u) was calculated following the equation below, and mean values for each species were calculated from 3 replicates. […]
Fraction unbound for both plasma and brain samples was determined using Equation 4.
Equation 4 Determination of fraction unbound in plasma. […]

[3] = Liver microsome intrinsic clearance, rat; format: in vitro ADME; conditions: for CLint scaled at 1 µM: pH 7.4, rat liver microsomes, predicted intrinsic clearance, read-out: LMS CLINT rat; for Predicted CLhep rat: from microsomal CLint
Protocol: were incubated in 100 mM potassium phosphate pH 7.4 buffer with 3 mM MgCl2 at 37 °C with constant shaking. After a 5 min preincubation, the reaction was initiated by the addition of NADPH (1 mM). At selected time intervals (0, 3, 7, 15, 25, and 45 min), aliquots were taken and subsequently placed into a 96-well plate containing cold acetonitrile with internal standard (50 ng/mL carbamazepine). Plates were then centrifuged at 3000 rcf (4 °C) for 10 min, and the supernatant was transferred to a separate 96-well plate and diluted 1:1 with water for LC/MS/MS analysis. The in vitro half-life ( 1/2, min, Eq. 1), intrinsic clearance (CLint, mL/min/kg, Eq. 2), and subsequent predicted hepatic clearance (CLhep, mL/min/kg, Eq. 3) was determined employing the […]
where k represents the slope from linear regression analysis of the natural log percent remaining of a test compound as a function of incubation time […]
(2) CLint = in vitroT x mg microsomes x gram liver x kg body wt ascale-up factors: of 20 (human) or 45 (rat) […]
where Qh (hepatic blood flow, mL/min/kg) is 21 (human) or 70 (rat).
LC/MS/MS Bioanalysis of Samples from Plasma Protein Binding and Intrinsic Clearance […]
Samples were analyzed on a Thermo Electron TSQ Quantum Ultra triple quad mass spectrometer (San Jose, CA) via electrospray ionization (ESI) with two Themo Electron Accella pumps (San Jose, CA), and a Leap Technologies CTC PAL autosampler (Carrboro, NC). Analytes were […]

Row | Structure (SMILES) | IC50 (mouse TREK-1 (mTREK-1)) [µM] | chromatographic logD (ChromatoLogD) | CLint scaled at 1 µM ([1]; pH 7.4) [mL/min/kg] | fraction unbound at 6 h, 5 µM [2] | CLint scaled at 1 µM [3] [mL/min/kg] | Predicted CLhep rat [3] [mL/min/kg] | CLint scaled [1] [mL/min/kg] | PPB rat ([2]; rat plasma) [%]
1 | Cc1cc(C#Cc2ccccc2)cnc1NC(=O)c1cc(OC[C@@H]2COCCO2)ccc1Cl [Compound 7, (S)-5-((1,4-Dioxan-2-yl)methoxy)-2-chloro-N-(3-methyl-5-(phenylethynyl)pyridin-2-yl)benzamide] | 0.17 | 4.14 | 88 |  |  |  |  | 
2 | CC(=O)N1CCC(n2ncc(Cl)c2C(=O)Nc2ncc(C#Cc3ccccc3)cc2C)CC1 [Compound 10, 1-(1-Acetylpiperidin-4-yl)-4-chloro-N-(3-methyl-5-(phenylethynyl)pyridin-2-yl)-1H-pyrazole-5-carboxamide] | 0.067 | 3.8 |  | 0.013 | 62 | 32.9 | 8 | 
3 | CC(=O)N1CC[C@@H](n2ncc(Cl)c2C(=O)Nc2ncc(C#Cc3ccc(F)cc3)cc2C)[C@H](F)C1 [Compound 11, 1-((3R,4R)-1-Acetyl-3-fluoropiperidin-4-yl)-4-chloro-N-(5-((4-fluorophenyl)ethynyl)-3-methylpyridin-2-yl)-1H-pyrazole-5-carboxamide] | 0.76 | 3.9 |  | 0.083 | 40 | 25.4 | 134 | 
4 | Cc1cc(C#Cc2ccccc2)cnc1NC(=O)c1c(Cl)cnn1[C@H]1CCOC1 [Compound 15a, (S)-4-Chloro-N-(3-methyl-5-(phenylethynyl)pyridin-2-yl)-1-(tetrahydrofuran-3-yl)-1H-pyrazole-5-carboxamide] |  |  |  | ~0.02 | 49 |  |  | 98.1
